From US20250327110A1, “HIGH THROUGHPUT MULTIPLEXED SERUM BASED BACTERICIDAL ASSAYS (SBAs), AND KITS FOR USE THEREIN” (priority 2024, published 2025) come the findings set out here.

Assay [1] relates to SNP0004 (flexneri 3a, parent J17B). Description: antibiotic sensitivity of mSBA target strain SNP0004. In kind it is cell-based, Shigella flexneri. Conditions: strain SNP0004 (flexneri 3a). The source says:
(§1) Strains 2457T (S. flexneri 2a) and SNP0006 (S. flexneri 6) were made resistant to streptomycin and nalidixic acid, respectively, by natural selection as previously described (Burton, R. L. and M. H. Nahm, “Development and validation of a fourfold multiplexed opsonization assay (MOPA4) for pneumococcal antibodies”, Clin Vaccine Immunol, 2006. 13(9): p. 1004-9). Strain J17B (S. flexneri 3a) was made kanamycin resistant by transduction with a nadC:kan fusion gene with P1 phage (Prunier, A. L., et al., “Genetic structure of the nadA and nadB antivirulence loci in Shigella spp.”, J Bacteriol, 2007. 189(17): p. 6482-6), which was obtained from a S. flexneri 2a strain (BS655) (personal communication with Dr. C. Turnbough at UAB).
(§2) To prepare working stocks for the target strains, primary stocks were streaked onto blood agar plates and incubated at 37° C./5% CO2. After overnight culture, multiple colonies were transferred to liquid culture medium (Todd-Hewitt broth with 0.5% yeast extract) and grown at 37° C. until cultures reached an OD600 of 0.5-1.4. After reaching the desired OD, glycerol was added to a final concentration of 16%, and 0.5-ml aliquots were prepared and stored at ≤−60° C. until needed. Each WS was tested to confirm the antibiotic sensitivity/resistance profile and to determine the optimal dilution of bacteria to use for the assay.
(§3) All target strains were tested individually in assay conditions for growth on plates containing antibiotics.

Another assay concerns S. sonnei strain Moseley. The format is cell-based, Shigella sonnei. Conditions: for Antibiotic Sensitivity: strain Moseley (sonnei); for antibiotic resistance screening: strain Moseley, natural resistance.
Excerpt: as §1, §2, §3

The subject of assay [2] is SNP0001 (flexneri 2a, parent 2457T). The assay can be described thus: antibiotic sensitivity of mSBA target strain SNP0001. In kind it is cell-based, Shigella flexneri. Conditions: strain SNP0001 (flexneri 2a).
Excerpt: as §1, §2, §3

Assay [3] concerns SNP0006 (flexneri 6, parent CCH060). The assay can be described thus: antibiotic sensitivity of mSBA target strain SNP0006. The format is cell-based, Shigella flexneri. Conditions: strain SNP0006 (flexneri 6).
Excerpt: as §1, §2, §3

In the case of `C[C@H]1c2cccc(O)c2C(O)=C2C(=O)[C@]3(O)C(O)=C(C(N)=O)C(=O)[C@@H](N(C)C)[C@@H]3[C@@H](O)[C@@H]21` [Dox, doxycycline], the “Antibiotic Sensitivity” value was “S” in assay [1], “R” in the assay with S. sonnei strain Moseley, “S” in assay [2] and “S” in assay [3]. Further, in the assay on S. sonnei strain Moseley, the antibiotic resistance screening entry is recorded as “naturally resistant”.

With `NC[C@H]1O[C@H](O[C@H]2[C@H](O)[C@@H](O[C@H]3O[C@H](CO)[C@@H](O)[C@H](N)[C@H]3O)[C@H](N)C[C@@H]2N)[C@H](O)[C@@H](O)[C@@H]1O` [Kan, kanamycin], the “Antibiotic Sensitivity” value in assay [1] is reported as “R”; in the assay on S. sonnei strain Moseley, “S”; in assay [2] it was “S”; in assay [3] it was “S”.

As for `CCn1cc(C(=O)O)c(=O)c2ccc(C)nc21` [NA, nalidixic acid], the “Antibiotic Sensitivity” value in assay [1] is on record as “S”; in the assay on S. sonnei strain Moseley, “S”; in assay [2] it was “S”; in assay [3], “R”. The antibiotic resistance screening result in the assay on S. sonnei strain Moseley is “sensitive”.

`[H]/N=C(/N)N[C@H]1[C@H](O)[C@@H](O)[C@H](O[C@@H]2O[C@@H](C)[C@](O)(C=O)[C@H]2O[C@@H]2O[C@@H](CO)[C@H](O)[C@@H](O)[C@@H]2NC)[C@@H](N/C(N)=N\[H])[C@@H]1O` [Strep, streptomycin]: the “Antibiotic Sensitivity” value in assay [1] was “S”; in the assay on S. sonnei strain Moseley, “S”; in assay [2] it was “R”; in assay [3] it was “S”. The antibiotic resistance screening result in the assay with S. sonnei strain Moseley is “sensitive”.
